Laboratory results: patent US5928932A, “Isolated gene encoding an enzyme with UDP-glucose pyrophosphorylase and phosphoglucomutase activities from Cyclotella cryptica” (priority 1996, dated 1999)

Target: T1, purified UGPase/PGMase protein (Cyclotella cryptica, UniProt A0ABD3PLY7)
T1 construct: both domains act
Assay type: biochemical
Conditions: determined via double reciprocal plots; glucose-6-phosphate versus glucose-1-phosphate as substrate
Procedure: P-4252) were added to each reaction and incubated for one hour at 30° C. The reaction mixtures were spotted onto separate 2.5 cm DE81 filter disks (Whatman Inc.; Fairfield, N.J.), which were then washed in five consecutive batches of water (200 mL each). The radioactivity of each filter was determined by liquid scintillation counting.

T1 sequence (A0ABD3PLY7 entry or part of it R291K): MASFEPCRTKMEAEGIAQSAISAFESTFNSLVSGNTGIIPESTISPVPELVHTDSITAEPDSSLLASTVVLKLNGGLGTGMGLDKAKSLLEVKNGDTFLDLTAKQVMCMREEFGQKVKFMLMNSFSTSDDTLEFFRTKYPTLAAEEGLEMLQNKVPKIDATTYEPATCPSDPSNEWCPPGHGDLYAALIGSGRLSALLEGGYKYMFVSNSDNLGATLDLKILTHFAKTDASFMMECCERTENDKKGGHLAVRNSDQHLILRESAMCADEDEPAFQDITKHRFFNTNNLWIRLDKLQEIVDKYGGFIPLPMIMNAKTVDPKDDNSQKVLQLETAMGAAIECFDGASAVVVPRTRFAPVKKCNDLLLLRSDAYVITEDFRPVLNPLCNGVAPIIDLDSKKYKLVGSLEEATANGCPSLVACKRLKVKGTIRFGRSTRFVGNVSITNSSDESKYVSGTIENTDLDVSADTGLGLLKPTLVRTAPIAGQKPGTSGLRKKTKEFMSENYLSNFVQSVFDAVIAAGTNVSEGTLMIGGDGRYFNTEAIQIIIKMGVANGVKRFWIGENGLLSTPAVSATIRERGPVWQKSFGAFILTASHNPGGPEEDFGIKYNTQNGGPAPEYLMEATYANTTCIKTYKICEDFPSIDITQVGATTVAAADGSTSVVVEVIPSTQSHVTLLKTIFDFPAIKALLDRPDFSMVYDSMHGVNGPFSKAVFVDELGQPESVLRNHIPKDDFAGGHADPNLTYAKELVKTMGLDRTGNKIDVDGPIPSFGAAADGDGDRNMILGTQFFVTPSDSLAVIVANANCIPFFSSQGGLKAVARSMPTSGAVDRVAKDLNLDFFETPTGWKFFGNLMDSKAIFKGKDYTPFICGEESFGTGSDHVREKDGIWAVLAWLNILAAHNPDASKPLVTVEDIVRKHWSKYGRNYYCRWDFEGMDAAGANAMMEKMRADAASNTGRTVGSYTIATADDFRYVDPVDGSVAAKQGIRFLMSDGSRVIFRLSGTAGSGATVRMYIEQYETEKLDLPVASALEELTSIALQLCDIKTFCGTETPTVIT

SMILES: O=P(O)(O)OC[C@H]1OC(O)[C@H](O)[C@@H](O)[C@@H]1O (stereo partly shown) [glucose-6-phosphate]
- maximum velocity of UDP-glucose formation, fold less than for glucose-1-phosphate: 13 fold
